Laboratory results taken from patent US11395816B2, “Corroles for treating human cytomegalovirus infections” (UNIVERSITE DE BOURGOGNE, priority 2017, dated 2022).
Read-outs that look alike come from different tables or passages of the source.

Tests used:
[1] = Toxicity assessment (cytotoxicity) on ARPE-19 cells; type: cell-based, human; conditions: human; ARPE-19 cells, 6 days of treatment, 0.1-50 μM tested
Method: (§1) hCMV infection was carried out on ARPE-19 cells seeded in 96 wells plate, in duplicate at one or two MOI (multiplicity of infection) and 7 concentrations of FNO2Cor, TPFCor, TpNO2Cor. • D0: MRC5/ARPE-19 cells seeded at 6 k per well in Corning Glass Bottom 96 well plates in 200 μL of DMEM without phenol red. • D1: cells were treated with FNO2Cor, TpNO2Cor, TPFCor (from 50 to 0.1 μM by two fold dilutions) in duplicate for the toxicity study. • D3: ARPE-19 cells were treated with Ganciclovir, FNO2Cor, TpNO2Cor, TPFCor (from 5 to 0.07 μM or from 10 to 0.15 μM by two fold dilutions) and were infected at different MOI in duplicate: MOI 10 or 2 for ARPE-19 cells. • D7: ARPE-19 cells at MOI 10 4 d post-infection were fixed with Formalin 10 min at room temperature. Cells were washed with 200 μL PBS and 100 μL PBS/Hoechst® 33342 ( 1/1000) per well. 96 well plates were kept at 4° C. in the dark until data acquisition Image acquisition and analysis for high content quantification was performed on a Thermo Cellomics Arrayscan™ VTI microscope using a modified compartmental analysis algorithm. • D13: ARPE19 cells at MOI 2 10 days post-infection were fixed and image acquisition and analysis were performed as previously described.
(§2) The toxicity of compounds FNO2Cor or TPFCor on ARPE-19 cells was evaluated after 6 days of treatment. 10 concentrations (50, 25, 12.5, 6.25, 3.1, 1.5, 0.75, 0.5, 0.25, 0.1 μM) of FNO2Cor and TPFCor were studied. The compound TpNO2Cor was used as positive control. Cell culture without treatment was used as negative control.
(§3) Cytotoxicity of compounds FNO2Cor, TPFCor and TpNO2Cor were assessed at different concentrations on ARPE-19 cells according to the method described on section 1.3. TpNO2Cor worked as positive reference.

ARPE-19 cells = experiment: as above; type: cell-based, human; conditions: for cytotoxicity (in words): ARPE-19 human retinal pigmented epithelium cells, FIG. 1 and Table I
Method: as §1, §2, §3

hCMV = hCMV infection assay in ARPE-19 cells (infection level and DNA replication by high content microscopy); type: cell-based, human cytomegalovirus
Method: ARPE-19 human retinal pigmented epithelium cells were used for hCMV infection assay.
Cells were grown in DMEM without phenol red (Sigma-Aldrich) 10% SVF, Pen-strep, 1× sodium pyruvate, 1× Glutamax.
as §1
On 4 d and 10 d post-infection (2 post-infection times), data acquisition per virus and cell line was done by high content microscopy to calculate infection level and DNA replication according to compound concentration.
Compounds FNO2Cor, TPFCor, TpNO2Cor and anti-hCMV drug Ganciclovir were assessed at 8 different concentrations in ARPE-19 cell culture on 4 days post-infection (FIGS. 2A, 2B) or on 10 days post-infection (FIGS. 3A, 3B) to evaluate their activity for inhibiting hCMV infection and their capacity for inhibiting hCMV replication in ARPE-19 cells.

[2] = already known, Gros et al., 2015; cited from earlier work
[3] = Human betaherpesvirus 5, ARPE-19, 96 h, read-out: IC50 ARPE (infection inhibition)
[4] = Human betaherpesvirus 5, ARPE-19, 96 h, read-out: IC50 ARPE (replication inhibition)
[5] = Human betaherpesvirus 5, ARPE-19, 240 h, read-out: IC50 ARPE (infection inhibition)
[6] = Human betaherpesvirus 5, ARPE-19, 240 h, read-out: IC50 ARPE (replication inhibition)
[7] = Table V, head prints 4 d PI, text says 10 d PI

Row | SMILES | CC50 at 6 days [1] | cytotoxicity (in words) (ARPE-19 cells) | Selectivity index (infection inhibition) (hCMV; 4 d PI, Table III) | Selectivity index (replication inhibition) (hCMV; 4 d PI, Table III) | IC50 (hCMV; [3]) | IC50 (hCMV; [4]) | IC50 (hCMV; [5]) | IC50 (hCMV; [6]) | Selectivity index (infection inhibition) (hCMV; [7]) | Selectivity index (replication inhibition) (hCMV; [7]) | CC50 (ARPE-19 cells) | IC50 (hCMV; 4 d PI, MOI 10, ARPE-19 cells, read-out: IC50 ARPE (infection inhibition)) | IC50 (hCMV; 4 d PI, MOI 10, ARPE-19 cells, read-out: IC50 ARPE (replication inhibition)) | IC50 (hCMV; 10 d PI, MOI 2, ARPE-19 cells, read-out: IC50 ARPE (infection inhibition)) | cytotoxicity (in words) [2]
1 | O=[N+]([O-])c1ccc(F)c(-c2c3nc(c4ccc([nH]4)c(-c4cc([N+](=O)[O-])ccc4F)c4ccc([nH]4)c(-c4cc([N+](=O)[O-])ccc4F)c4ccc2[nH]4)C=C3)c1 [FNO2Cor, 5,10,15-Tris(2-fluoro-5-nitrophenyl)corrole] | 50 µM | safe | 21.05 | 8.45 | 2.38 µM | 5.92 µM | 1.25 µM | 11.8 µM | 39.94 | 4.24 |  |  |  |  | 
2 | Fc1c(F)c(F)c(-c2c3nc(c4ccc([nH]4)c(-c4c(F)c(F)c(F)c(F)c4F)c4ccc([nH]4)c(-c4c(F)c(F)c(F)c(F)c4F)c4ccc2[nH]4)C=C3)c(F)c1F [TPFCor, 5,10,15-Tris(pentafluorophenyl)corrole] | 26.1 µM | safe | 7.38 | 16.28 | 3.53 µM | 1.6 µM | 0.96 µM | 12.3 µM | 27.04 | 2.12 |  |  |  |  | 
3 | O=[N+]([O-])c1ccc(-c2c3nc(c4ccc([nH]4)c(-c4ccc([N+](=O)[O-])cc4)c4ccc([nH]4)c(-c4ccc([N+](=O)[O-])cc4)c4ccc2[nH]4)C=C3)cc1 [TpNO2Cor, 5,10,15-Tris(4-nitrophenyl)corrole, reference compound] |  |  |  |  |  |  |  |  |  |  | 25 µM | 3.98 µM | 8.34 µM | 1.79 µM | not cytotoxic
